According to patent EP1247803A2, “Indolinone compounds suitable for modulation of protein kinases” (Sugen, Inc., priority 1996, dated 1998):

How the values were obtained:
FLK-1 receptor = target: T1, FLK-1 receptor (Mus musculus, UniProt P35918); test: FLK-1 ELISA (kinase activity of the FLK-1 receptor in FLK-1/NIH3T3 cells, VEGF stimulated); assay type: cell-based; parameters: concentration or dose not given beside the values
T1 construct: expressed in transfected cells; host or cells: NIH3T3 C7#3
Summary of the method: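 FLK-1-expressing NIH3T3 C7#3 cells, starved overnight in 0.1% FBS medium, were treated with compounds at a 1:200 final dilution (0.5% DMSO) for 2 h at 37 °C, with VEGF stimulation. FLK-1 kinase activity was read by ELISA on anti-rabbit IgG plates using affinity-purified anti-FLK-1 antiserum.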

PDGF-R = PDGF-R (Homo sapiens, UniProt P09619); test: PDGF-R ELISA; assay type: cell-based
Excerpt: A PDGF-R ELISA is described in International Patent Publication No. WO 96/40116, published December 19, 1996 by Tang et al.

T1 sequence (P35918 20-1345): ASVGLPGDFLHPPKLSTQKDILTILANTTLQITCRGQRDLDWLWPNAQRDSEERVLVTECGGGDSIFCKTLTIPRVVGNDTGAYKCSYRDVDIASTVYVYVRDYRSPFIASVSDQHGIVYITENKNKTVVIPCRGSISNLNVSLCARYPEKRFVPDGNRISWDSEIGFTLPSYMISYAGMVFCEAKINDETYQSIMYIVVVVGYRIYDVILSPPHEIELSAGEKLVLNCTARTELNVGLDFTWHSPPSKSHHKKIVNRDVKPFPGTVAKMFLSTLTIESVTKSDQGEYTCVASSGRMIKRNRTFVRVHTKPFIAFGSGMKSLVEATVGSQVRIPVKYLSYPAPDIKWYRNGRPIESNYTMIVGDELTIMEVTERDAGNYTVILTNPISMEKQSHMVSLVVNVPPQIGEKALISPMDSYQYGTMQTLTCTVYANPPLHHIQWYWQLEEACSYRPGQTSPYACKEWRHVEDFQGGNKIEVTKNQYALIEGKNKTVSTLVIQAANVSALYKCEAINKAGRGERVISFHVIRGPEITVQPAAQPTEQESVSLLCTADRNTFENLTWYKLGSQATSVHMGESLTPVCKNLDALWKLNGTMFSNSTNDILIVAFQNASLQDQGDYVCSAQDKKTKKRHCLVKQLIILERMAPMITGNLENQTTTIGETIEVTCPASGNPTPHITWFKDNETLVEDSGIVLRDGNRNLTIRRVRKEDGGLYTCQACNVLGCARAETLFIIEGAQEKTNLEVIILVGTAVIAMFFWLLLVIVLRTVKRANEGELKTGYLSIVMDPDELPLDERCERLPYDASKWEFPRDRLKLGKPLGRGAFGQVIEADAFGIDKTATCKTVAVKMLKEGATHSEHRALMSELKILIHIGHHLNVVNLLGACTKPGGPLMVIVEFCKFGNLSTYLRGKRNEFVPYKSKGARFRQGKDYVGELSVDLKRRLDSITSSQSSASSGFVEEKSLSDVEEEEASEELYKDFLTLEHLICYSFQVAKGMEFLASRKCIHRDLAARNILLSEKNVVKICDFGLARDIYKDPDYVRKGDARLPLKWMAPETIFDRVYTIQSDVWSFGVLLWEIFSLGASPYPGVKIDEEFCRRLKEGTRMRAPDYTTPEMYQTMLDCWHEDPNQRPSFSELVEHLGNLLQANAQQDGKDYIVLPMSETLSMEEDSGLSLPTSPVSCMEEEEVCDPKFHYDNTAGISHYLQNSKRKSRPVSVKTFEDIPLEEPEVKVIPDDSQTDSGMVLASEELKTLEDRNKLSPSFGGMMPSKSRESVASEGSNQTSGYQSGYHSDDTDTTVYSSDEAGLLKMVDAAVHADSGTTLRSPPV
PDGF-R, sequence (P09619 33-1106, species assumed): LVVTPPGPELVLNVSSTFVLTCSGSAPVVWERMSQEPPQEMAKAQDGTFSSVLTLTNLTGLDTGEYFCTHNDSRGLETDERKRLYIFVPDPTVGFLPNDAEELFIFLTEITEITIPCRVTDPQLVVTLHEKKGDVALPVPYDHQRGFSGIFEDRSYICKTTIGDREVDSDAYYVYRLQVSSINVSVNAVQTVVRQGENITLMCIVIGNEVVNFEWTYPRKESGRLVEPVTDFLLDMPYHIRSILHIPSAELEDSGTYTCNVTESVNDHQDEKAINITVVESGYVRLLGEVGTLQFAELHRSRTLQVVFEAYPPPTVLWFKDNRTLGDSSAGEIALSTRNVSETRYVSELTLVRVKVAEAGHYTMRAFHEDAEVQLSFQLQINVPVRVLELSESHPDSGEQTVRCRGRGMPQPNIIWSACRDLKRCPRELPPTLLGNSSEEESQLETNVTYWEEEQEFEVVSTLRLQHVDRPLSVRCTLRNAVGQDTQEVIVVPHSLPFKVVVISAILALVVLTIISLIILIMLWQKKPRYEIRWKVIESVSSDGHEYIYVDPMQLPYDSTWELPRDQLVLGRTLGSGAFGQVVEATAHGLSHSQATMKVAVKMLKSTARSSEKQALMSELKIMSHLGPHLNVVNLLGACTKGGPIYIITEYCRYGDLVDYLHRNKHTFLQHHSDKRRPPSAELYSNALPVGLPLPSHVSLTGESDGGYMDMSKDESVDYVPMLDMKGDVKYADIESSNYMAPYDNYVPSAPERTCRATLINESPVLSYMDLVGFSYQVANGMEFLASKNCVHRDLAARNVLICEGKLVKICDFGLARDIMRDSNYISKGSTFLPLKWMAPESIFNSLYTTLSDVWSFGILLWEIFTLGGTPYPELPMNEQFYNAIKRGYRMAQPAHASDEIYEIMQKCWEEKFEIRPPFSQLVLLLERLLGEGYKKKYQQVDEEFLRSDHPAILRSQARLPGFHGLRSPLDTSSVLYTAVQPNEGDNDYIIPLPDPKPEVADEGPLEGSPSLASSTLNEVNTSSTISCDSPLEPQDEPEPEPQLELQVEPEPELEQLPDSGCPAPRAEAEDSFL

O=C1Nc2c(Br)cc(Br)cc2C1=Cc1ccc[nH]1 [10717/A09]
Fik Kinase %Inhibition (FLK-1 receptor): -3.9%

CCOC(=O)CCc1c(C(=O)OCC)[nH]c(C=C2C(=O)Nc3ccc(Br)c(C)c32)c1CC(=O)OCC [10718/C05]
Fik Kinase %Inhibition (FLK-1 receptor): 20.5%

CCOC(=O)c1cc(C=C2C(=O)Nc3ccc(Br)c(C)c32)oc1C [10718/C06]
Fik Kinase %Inhibition (FLK-1 receptor): 16.8%

COC(=O)c1[nH]c(C)c(C=C2C(=O)Nc3ccc(Br)c(C)c32)c1C(=O)OC [10718/C07]
Fik Kinase %Inhibition (FLK-1 receptor): 6.3%

Cc1c(Br)ccc2c1C(=Cc1ccc(Cl)c([N+](=O)[O-])c1)C(=O)N2 [10718/C08]
Fik Kinase %Inhibition (FLK-1 receptor): 19.6%

Cc1c(O)ccc(C=C2C(=O)Nc3ccc(Br)c(C)c32)c1O [10718/C09]
Fik Kinase %Inhibition (FLK-1 receptor): 5.3%

O=C1Nc2ccc(S(=O)(=O)N3CCOCC3)cc2C1=Cc1coc2c(Br)cc(Br)cc2c1=O [10730/F09]
PDGF Kinase %Inhibition (PDGF-R): 13.3%
Fik Kinase %Inhibition (FLK-1 receptor): 14.4%

COC1CC(C=C2C(=O)Nc3ccc(S(=O)(=O)N4CCOCC4)cc32)C(OC)O1 (centres unmarked) [10730/F10]
PDGF Kinase %Inhibition (PDGF-R): 1.9%
Fik Kinase %Inhibition (FLK-1 receptor): 13.4%

Cc1cc(C=C2C(=O)Nc3ccc(S(=O)(=O)N4CCOCC4)cc32)oc1C [10730/F11]
PDGF Kinase %Inhibition (PDGF-R): 4.5%
Fik Kinase %Inhibition (FLK-1 receptor): -1.3%

COc1ccc(C=C2C(=O)Nc3ccc(CCCl)cc32)c(OC)c1OC [10730/G02]
PDGF Kinase %Inhibition (PDGF-R): 18.1%
Fik Kinase %Inhibition (FLK-1 receptor): 23.3%

COc1cc(OC)c(OC)cc1C=C1C(=O)Nc2ccc(CCCl)cc21 [10730/G03]
PDGF Kinase %Inhibition (PDGF-R): 44.0%
Fik Kinase %Inhibition (FLK-1 receptor): 15.2%

COc1cc(C=C2C(=O)Nc3ccc(CCCl)cc32)cc(OC)c1OC [10730/G04]
PDGF Kinase %Inhibition (PDGF-R): 21.6%
Fik Kinase %Inhibition (FLK-1 receptor): 7.4%

CC(=O)n1cc(C=C2C(=O)Nc3ccc(CCCl)cc32)c2ccccc21 [10730/G05]
PDGF Kinase %Inhibition (PDGF-R): 65.0%
Fik Kinase %Inhibition (FLK-1 receptor): 22.3%

O=C1Nc2ccc(CCCl)cc2C1=Cc1ccc(-c2ccccc2Cl)o1 [10730/G07]
PDGF Kinase %Inhibition (PDGF-R): 19.9%
Fik Kinase %Inhibition (FLK-1 receptor): 8.3%

O=C1Nc2ccc(CCCl)cc2C1=Cc1cc2ccccc2nc1Cl [10730/G08]
PDGF Kinase %Inhibition (PDGF-R): 20.3%
Fik Kinase %Inhibition (FLK-1 receptor): 23.3%

COC1CC(C=C2C(=O)Nc3ccc(CCCl)cc32)C(OC)O1 (centres unmarked) [10730/G10]
PDGF Kinase %Inhibition (PDGF-R): 22.1%
Fik Kinase %Inhibition (FLK-1 receptor): 11.3%

Cc1cc(C=C2C(=O)Nc3ccc(CCCl)cc32)oc1C [10730/G11]
PDGF Kinase %Inhibition (PDGF-R): -0.3%
Fik Kinase %Inhibition (FLK-1 receptor): -1.4%

CCn1c2ccccc2c2cc(C=C3C(=O)Nc4c(Br)cc(Br)cc43)ccc21 [10731/A02]
PDGF Kinase %Inhibition (PDGF-R): -3.9%
Fik Kinase %Inhibition (FLK-1 receptor): 2.7%

Cc1cc2occ(C=C3C(=O)Nc4c(Br)cc(Br)cc43)c(=O)c2cc1C [10731/A03]
PDGF Kinase %Inhibition (PDGF-R): 7.5%
Fik Kinase %Inhibition (FLK-1 receptor): 2.5%

C=C(C)C1CC=C(C=C2C(=O)Nc3c(Br)cc(Br)cc32)CC1 (centres unmarked) [10731/A04]
PDGF Kinase %Inhibition (PDGF-R): 5.1%
Fik Kinase %Inhibition (FLK-1 receptor): 5.0%

CC(C)c1ccc2occ(C=C3C(=O)Nc4c(Br)cc(Br)cc43)c(=O)c2c1 [10731/A05]
PDGF Kinase %Inhibition (PDGF-R): 14.1%
Fik Kinase %Inhibition (FLK-1 receptor): -6.5%

Cc1ccc2occ(C=C3C(=O)Nc4c(Br)cc(Br)cc43)c(=O)c2c1 [10731/A06]
PDGF Kinase %Inhibition (PDGF-R): 1.3%
Fik Kinase %Inhibition (FLK-1 receptor): -5.5%

O=C1Nc2c(Br)cc(Br)cc2C1=Cc1coc2ccc([N+](=O)[O-])cc2c1=O [10731/A07]
PDGF Kinase %Inhibition (PDGF-R): 4.6%
Fik Kinase %Inhibition (FLK-1 receptor): -4.3%

O=C1Nc2c(Br)cc(Br)cc2C1=Cc1c[nH]c(=O)[nH]c1=O [10731/A08]
PDGF Kinase %Inhibition (PDGF-R): -2.5%
Fik Kinase %Inhibition (FLK-1 receptor): -13.8%

COc1ccc2[nH]cc(C=C3C(=O)Nc4c(Br)cc(Br)cc43)c2c1 [10731/A09]
PDGF Kinase %Inhibition (PDGF-R): -14.4%
Fik Kinase %Inhibition (FLK-1 receptor): -2.7%

CN1C(=O)C(=C2C(=O)Nc3c(Br)cc(Br)cc32)c2ccccc21 [10731/A10]
PDGF Kinase %Inhibition (PDGF-R): -3.5%
Fik Kinase %Inhibition (FLK-1 receptor): -5.3%

CCn1c2ccccc2c2cc(C=C3C(=O)Nc4ccc(I)cc43)ccc21 [10731/B02]
PDGF Kinase %Inhibition (PDGF-R): 13.2%
Fik Kinase %Inhibition (FLK-1 receptor): 6.5%

Cc1cc2occ(C=C3C(=O)Nc4ccc(I)cc43)c(=O)c2cc1C [10731/B03]
PDGF Kinase %Inhibition (PDGF-R): 9.9%
Fik Kinase %Inhibition (FLK-1 receptor): 1.9%

C=C(C)C1CC=C(C=C2C(=O)Nc3ccc(I)cc32)CC1 (centres unmarked) [10731/B04]
PDGF Kinase %Inhibition (PDGF-R): 0.3%
Fik Kinase %Inhibition (FLK-1 receptor): 12.0%

CC(C)c1ccc2occ(C=C3C(=O)Nc4ccc(I)cc43)c(=O)c2c1 [10731/B05]
PDGF Kinase %Inhibition (PDGF-R): 17.9%
Fik Kinase %Inhibition (FLK-1 receptor): 3.8%

Cc1ccc2occ(C=C3C(=O)Nc4ccc(I)cc43)c(=O)c2c1 [10731/B06]
PDGF Kinase %Inhibition (PDGF-R): 5.6%
Fik Kinase %Inhibition (FLK-1 receptor): 6.2%

O=C1Nc2ccc(I)cc2C1=Cc1coc2ccc([N+](=O)[O-])cc2c1=O [10731/B07]
PDGF Kinase %Inhibition (PDGF-R): 6.0%
Fik Kinase %Inhibition (FLK-1 receptor): 11.7%

O=C1Nc2ccc(I)cc2C1=Cc1c[nH]c(=O)[nH]c1=O [10731/B08]
PDGF Kinase %Inhibition (PDGF-R): -23.4%
Fik Kinase %Inhibition (FLK-1 receptor): 6.2%

COc1ccc2[nH]cc(C=C3C(=O)Nc4ccc(I)cc43)c2c1 [10731/B09]
PDGF Kinase %Inhibition (PDGF-R): 0.3%
Fik Kinase %Inhibition (FLK-1 receptor): -0.5%

CN1C(=O)C(=C2C(=O)Nc3ccc(I)cc32)c2ccccc21 [10731/B10]
PDGF Kinase %Inhibition (PDGF-R): 4.6%
Fik Kinase %Inhibition (FLK-1 receptor): 1.3%

CCn1c2ccccc2c2cc(C=C3C(=O)Nc4ccc(Br)c(C)c43)ccc21 [10731/C02]
PDGF Kinase %Inhibition (PDGF-R): -2.5%
Fik Kinase %Inhibition (FLK-1 receptor): 3.1%

Cc1cc2occ(C=C3C(=O)Nc4ccc(Br)c(C)c43)c(=O)c2cc1C [10731/C03]
PDGF Kinase %Inhibition (PDGF-R): 11.3%
Fik Kinase %Inhibition (FLK-1 receptor): 4.5%

C=C(C)C1CC=C(C=C2C(=O)Nc3ccc(Br)c(C)c32)CC1 (centres unmarked) [10731/C04]
PDGF Kinase %Inhibition (PDGF-R): 15.1%
Fik Kinase %Inhibition (FLK-1 receptor): 10.5%

Cc1c(Br)ccc2c1C(=Cc1coc3ccc(C(C)C)cc3c1=O)C(=O)N2 [10731/C05]
PDGF Kinase %Inhibition (PDGF-R): 22.7%
Fik Kinase %Inhibition (FLK-1 receptor): 14.9%

Cc1ccc2occ(C=C3C(=O)Nc4ccc(Br)c(C)c43)c(=O)c2c1 [10731/C06]
PDGF Kinase %Inhibition (PDGF-R): 7.0%
Fik Kinase %Inhibition (FLK-1 receptor): 13.8%

Cc1c(Br)ccc2c1C(=Cc1coc3ccc([N+](=O)[O-])cc3c1=O)C(=O)N2 [10731/C07]
PDGF Kinase %Inhibition (PDGF-R): 31.3%
Fik Kinase %Inhibition (FLK-1 receptor): 70.4%

Cc1c(Br)ccc2c1C(=Cc1c[nH]c(=O)[nH]c1=O)C(=O)N2 [10731/C08]
PDGF Kinase %Inhibition (PDGF-R): -3.0%
Fik Kinase %Inhibition (FLK-1 receptor): 10.2%

COc1ccc2[nH]cc(C=C3C(=O)Nc4ccc(Br)c(C)c43)c2c1 [10731/C09]
PDGF Kinase %Inhibition (PDGF-R): -6.3%
Fik Kinase %Inhibition (FLK-1 receptor): 15.1%

Cc1c(Br)ccc2c1C(=C1C(=O)N(C)c3ccccc31)C(=O)N2 [10731/C10]
PDGF Kinase %Inhibition (PDGF-R): 6.5%
Fik Kinase %Inhibition (FLK-1 receptor): 19.7%

CCn1c2ccccc2c2cc(C=C3C(=O)Nc4ccc(S(=O)(=O)NC)cc43)ccc21 [10731/D02]
PDGF Kinase %Inhibition (PDGF-R): 17.9%
Fik Kinase %Inhibition (FLK-1 receptor): -8.4%

CNS(=O)(=O)c1ccc2c(c1)C(=Cc1coc3cc(C)c(C)cc3c1=O)C(=O)N2 [10731/D03]
PDGF Kinase %Inhibition (PDGF-R): 28.4%
Fik Kinase %Inhibition (FLK-1 receptor): 17.3%
